According to US20190192427A1, “AZOLE COMPOUND OPHTHALMIC PREPARATION” (BIOTOOL, LLC, priority 2016, published 2019):

Assays:
nuclear cataract = experiment: Rat sodium selenite (senile/nuclear) cataract model, eye drops, lens opacity phase by slit lamp; type: in vivo, Wistar rats; settings: 10 suffering eyes per group, about 20 μL three times a day, 10 weeks
Procedure: (§1) Rat model of cataract was made: Wistar rats 12 days after birth were selected, male or female, modeled with sodium selenite (senile cataract), each rat was injected subcutaneously in the back neck according to 20 umol/kg body weight. Acupuncture was used to model adult rats (traumatic cataract).
(§2) The opacity of the lens was observed using a slit lamp, and the lens opacity is generally classified into phase 0-V.
(§3) phase 0—Lens are transparent;
(§4) phase I—The cortex around the lens is scattered in small vacuoles;
(§5) phase II—The cortex around the lens is in ring-shaped dense medium vacuoles;
(§6) phase III—Other parts of cortex are in flaky turbidity;
(§7) phase IV—Lens nucleus and perinuclear cortex are turbid;
(§8) phase V—The lens is completely turbid.
(§9) After 3 days of modeling, econazole eye drops were administered three times a day including morning, noon, and evening, at intervals of at least 5 hours. Every group was made up of 10 cases of cataract suffering eyes involved in the test. The mode of administration was directly dropping to the eye to ensure that the drug was completely dripped into the eye. Each case of suffering eye receiving treatment was administrated one drop at a time with an amount of about 20 μL, and was continuously administrated for 10 weeks. All cataract suffering eyes in different treatment groups were observed and judged for signs of symptom ease or symptom relief.

traumatic cataract = experiment: Rat acupuncture (traumatic) cataract model, eye drops, lens opacity phase by slit lamp; type: in vivo, rats; settings: 10 suffering eyes per group, about 20 μL three times a day, 10 weeks
Procedure: as §1, §2, §3, §4, §5, §6, §7, §8, §9

[1] = Tolerance of eye drops in cataract rats during treatment; type: in vivo, rat; settings: eye drops three times a day, 10 weeks
Procedure: as §9

## Clc1ccc(COC(Cn2ccnc2)c2ccc(Cl)cc2Cl)cc1 (stereo not shown) [econazole, Econazole]
Nuclear cataract
  number of eyes in phase 0: 6
  number of eyes in phase I: 0
  number of eyes in phase II: 0
  number of eyes in phase III: 0
  number of eyes in phase IV: 4
  number of eyes in phase V: 0
Traumatic cataract
  number of eyes in phase 0: 4
  number of eyes in phase I: 5
  number of eyes in phase II: 1
  number of eyes in phase III: 0
  number of eyes in phase IV: 0
  number of eyes in phase V: 0
[1]
  discomfort or ocular allergic reaction throughout the treatment: No rat has discomfort or ocular allergic reaction
